The test system of one data set is CD1 mice. Description: Toxicity observation after intraperitoneal injection. The class given is in vivo, mouse. Conditions: i.p. 50 mg/Kg. The method, then:
(§1) Male CD1 mice (4-5 weeks, 20-22 g, Charles river, Wilmington, Mass.) were used in this study. The animals were fed with commercial diet and water ad libidum and were kept at the animal facility of the University of Massachusetts Medical Center (Worcester, Mass.). For in vivo studies, phosphorothioate oligonucleotides (final concentration 4 mg/ml) were mixed with 5% of the cyclodextrin HPCD or HECD in sterile PBS, sonicated at 4° C. for 1 hour, followed by incubation at 4° C. overnight. The phosphorothioate oligonucleotide, either in plain PBS or mixed with cyclodextrin, was injected into mice intraperitoneally, in a volume of 0.25 ml (1 mg/mouse). After 24 hr (in the case of the phosphorothioate oligonucleotide of SEQ ID NO:4) and 48 hr (in the case of the phosphorothioate oligonucleotide of SEQ ID NO:2), mice were sacrificed and spleens were collected and prepared for further studies. Two or three mice were studied for each condition and analyzed individually.
Similar experiments were performed with the phosphorothioate oligonucleotide of SEQ ID NO:4. […] In order to reduce the toxicity, 25 mg/Kg of the phosphorothioate oligonucleotide of SEQ ID NO:4 was injected into the animals.

A further data set relates to spleen cells of CD1 mice. Kind of data set: Cell cycle analysis of spleen cells from in vivo treated mice. Set-up: species or system mouse. The method, then:
as §1, with “The phosphorothioate oligonucleotide, either in plain PBS or mixed with cyclodextrin, was injected into mice intraperitoneally, in a volume of 0.25 ml (1 mg/mouse).” left out
Spleens from in vivo treated mice were harvested and single cell suspensions were set in culture in RPMI complete medium (10^6 cells/tube in 1 ml RPMI). After 4 hours of culture, cells were washed with FACS buffer and fixed for cell cycle analysis as described above. The experiments were done in duplicate.

Data set [1] relates to spleen lymphocytes of CD1 mice. Description: Immunoglobulin synthesis (IgG/IgM ELISA) by spleen cells of in vivo treated mice. Set-up: species or system mouse. The procedure:
as §1
Spleens from in vivo treated mice were harvested and single cell suspensions were set in culture at a density of 10^6 cells/ml, in 1 ml RPMI complete medium. […] The optical density (405 nm) was measured using an automatic ELISA plate reader (Bio-Tek Instruments, Inc). IgG and IgM levels were calculated based on the standard curve. […]

The test system of the next data set is spleen of CD1 mice. Kind of data set: Spleen size (spleen weight) after intraperitoneal injection. The class given is in vivo, mouse. The procedure: as §1
Data set [2] has as its system immunostimulatory response. The following applies: known from the literature; cited from earlier work.
Another data set concerns mouse splenocytes. Description: Splenic cell proliferation assay, [3H]-thymidine incorporation. The class given is cell-based. Conditions: for cell proliferation ([3H]-thymidine incorporation): oligonucleotide alone, FIG. 1 / FIG. 3 (SEQ ID NO:4 at 1 or 10 μg/ml). The procedure:
Mouse spleen was taken from male CD1 mouse (4-5 weeks, Charles River, Wilmington, Mass.). Single cell suspensions were prepared by gently mincing with frosted ends of glass slides, washed twice, and then resuspended in RPMI complete medium [RPMI 1640 medium supplemented with 10%-heat inactivated (56° C. for 30 minutes) fetal bovine serum, 2 mM glutamine, 100 μg/ml streptomycin, 100 U/ml penicillin, and 50 μM 2-mercaptoethanol]. The cells were then plated in 96-well dishes at a density of 10^6 cells/ml, in a final volume of 100 μl. Oligonucleotides were added to the cell culture in 10 μl of TE buffer (10 mM Tris-HCL pH 7.5, 1 mM EDTA). Cyclodextrin analogs: 2-hydroxypropyl-βcyclodextrin (HPCD, degree of substitution 5-8), hydroxyethyl-β cyclodextrin (HECD, degree of substitution 15), and Encapsin (which is a mixture of hydroxypropyl β-cyclodextrin but has a different degree of substitution, 17.8), were purchased pyrogen free (Amaizo, Hammond, Ind.) and were added to the cells at concentration of 0.5% in RPMI medium except where indicated. Cells were then set to culture in a 37° C., 5% CO2-[…], humidified air incubator for further studies. The experiments were done in triplicate.
After 44 hours, cells were pulsed-labeled with 1 μCi [^3H]-thymidine/well (in 20 μl of RPMI medium) for 4 hours. Cells were then harvested by an automatic cell harvester (Skatron, Sterling, Va.) and the filters were counted using a scintillation counter. […] All the three cyclodextrin analogs reduced cell proliferation to similar levels.

Data set [3] concerns murine splenic lymphocytes. Kind of data set: Cell cycle analysis, in vitro (propidium iodide flow cytometry). The class given is cell-based, mouse. The following applies: 48 hours, oligonucleotide 10 μg/ml, cyclodextrin 0.5%.
In another data set the test system is HIV-1. The following applies: background statement; cited from earlier work.
Where [4] appears, read: i.p. 1 mg/mouse (50 mg/Kg), 48 hr.

For the substance “SEQ ID NO:4: phosphorothioate oligonucleotide, 20-mer that contains multiple 5′-CG-3′ motifs (GAGAACGCTCGACCTTCGAT; all phosphorothioate, sugars by position and methylation of C not given here)”, in the data set on CD1 mice, the toxicity observation result is “noticeable bloody exudate and congestion in abdominal cavities”. Further, in the data set on spleen cells of CD1 mice (i.p. 25 mg/Kg, 24 hr), the “% cells in G0/G1” value is 68.5 ± 0.5%, the “% cells in G2/S” value turned out to be 22.7 ± 0.5%, the “Increase (cells in G2/S compared with PBS)” value is given as 41% and the “stimulation of cell proliferation (cell cycle analysis)” value is given as “stimulated cell proliferation”. Besides, in data set [1] (SEQ ID NO:4, FIG. 7), the “increase in production of IgG and IgM antibodies” value is reported as “approximately 10 fold”. For the same substance, the “splenomegaly / spleen weight” value in the data set on spleen of CD1 mice (SEQ ID NO:4 i.p., 24 hr, FIG. 6) is given as “induced splenomegaly”. In data set [2], the immunostimulatory effect result is “induce an immunostimulatory response both in vitro and in vivo”. The “cell proliferation ([3H]-thymidine incorporation)” value in the data set with mouse splenocytes is listed as “dramatic increase in cell proliferation”.
For 2-hydroxypropyl-β-cyclodextrin [HPCD], in the data set on spleen of CD1 mice (5% HPCD alone), the “spleen weight compared to PBS-treated mice” value was “no effect on spleen weight”.
For the substance “SEQ ID NO:2: phosphorothioate oligodeoxynucleotide complementary to the rev region of HIV-1; induces an immunostimulatory response (TCGTCGCTGTCTCCGCTTCTTCTTGCC; DNA, all phosphorothioate, methylation of C not given here)”, in the data set on spleen cells of CD1 mice (setting [4]), the “% cells in G0/G1” value was 82.0 ± 1.2% and the “% cells in G2/S” value is on record as 18.0 ± 1.2%. For the same substance, in data set [1] (SEQ ID NO:2, 48 hours after injection, FIG. 5), the “production of IgG and IgM” value is reported as “highly significant increase”. Moreover, the “spleen weight relative to PBS-treated mice” value in the data set on spleen of CD1 mice (i.p. 1 mg/mouse, 48 hr, FIG. 4) is on record as “about 1.5 times”. For the same substance, in data set [3], the “% cells in G0/G1” value was 77.7 ± 1.0%, the “% cells in G2/S” value stood at 22.3 ± 1.0% and the “Increase (cells in S/G2 phases compared with medium alone)” value amounted to 44.8%. For the same substance, the “change in [3H] thymidine incorporation” value with mouse splenocytes (0.1 μg/ml oligonucleotide, FIG. 1) is recorded as “no significant change”. In addition, the “cell proliferation ([3H]-thymidine incorporation)” value in the data set with mouse splenocytes was “increases cell proliferation in a concentration-dependent manner”. Moreover, the HIV-1 replication entry in the data set on HIV-1 is “inhibit HIV-1 replication”.
Turning to “SEQ ID NO:3: phosphorothioate oligonucleotide that binds to the human p53 oncogene (CCCTGCTCCCCCCTGGCTCC; all phosphorothioate, sugars by position and methylation of C not given here)”, in data set [2], the immunostimulatory effect entry is listed as “does not induce an immunostimulatory effect”.

The values above are taken from patent US6667293B1, “Use of cyclodextrins to modulate gene expression with reduced immunostimulatory response” (priority 1995, dated 2003).
